Assays:
IRAK4 [1] = biological target: T1, IRAK4 (Homo sapiens, UniProt Q9NWZ3); test: OCI-LY-10 degradation assay (western blot, % IRAK4 degraded after 4 hours); assay type: cell-based; parameters: endogenous in cells; host or cells: OCI-LY10; conditions: OCI-LY10 cells, 4 hours; for OCI-LY10 % IRAK4 Degradation (0.01 uM): 0.01 uM compound; for OCI-LY10 % IRAK4 Degradation (0.1 uM): 0.1 uM compound; for OCI-LY10 % IRAK4 Degradation (1 uM): 1 uM compound
T1 sequence (Q9NWZ3 1-460): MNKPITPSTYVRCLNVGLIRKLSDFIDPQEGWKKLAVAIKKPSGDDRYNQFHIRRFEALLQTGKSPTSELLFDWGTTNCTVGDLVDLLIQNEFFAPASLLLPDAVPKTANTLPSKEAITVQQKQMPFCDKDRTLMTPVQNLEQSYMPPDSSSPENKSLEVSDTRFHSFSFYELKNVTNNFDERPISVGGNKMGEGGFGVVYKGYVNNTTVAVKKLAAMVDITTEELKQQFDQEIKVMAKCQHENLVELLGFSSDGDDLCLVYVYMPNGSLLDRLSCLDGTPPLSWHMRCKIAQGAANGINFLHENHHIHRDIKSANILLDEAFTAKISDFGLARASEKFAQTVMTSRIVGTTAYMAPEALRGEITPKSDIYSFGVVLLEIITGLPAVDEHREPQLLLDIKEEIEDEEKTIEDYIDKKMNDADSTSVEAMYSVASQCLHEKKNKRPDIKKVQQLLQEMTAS
How it was run: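 OCI-LY10 cells (RPMI-1640, 20% FBS, 55 μM 2-ME) treated with compound at 0.003-10 μM final for 4 h at 37° C, then lysed in RIPA buffer. IRAK4 level read by fluorescent western blot (20-25 μg protein) and binned as % degraded: A >50%, B >20-50%, C <20%.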

IRAK4 [2] = biological target: T1, IRAK4; test: OCI-LY-10 MSD assay for IRAK4 DC50; assay type: cell-based; parameters: endogenous in cells; host or cells: OCI-LY10; conditions: OCI-LY10 cells, 4 hr incubation, concentration required to degrade 50% of protein
How it was run: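 OCI-Ly10 cells were exposed to compound for 4 hr across a 3-fold, 8-point dilution series. Lysates were made in RIPA buffer, and IRAK4 remaining was measured by MSD sandwich immunoassay with anti-IRAK4 capture and detection antibodies. DC50 was taken from a four-parameter logistic fit.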

SMILES | OCI-LY10 % IRAK4 Degradation (0.01 uM) (IRAK4 [1]) | OCI-LY10 % IRAK4 Degradation (0.1 uM) (IRAK4 [1]) | OCI-LY10 % IRAK4 Degradation (1 uM) (IRAK4 [1]) | DC50 (IRAK4 [2]) [nM]
O=C1CCC(N2C(=O)c3cccc(CCCCCN4CCC(n5cc(NC(=O)c6coc(-c7ccnc(NCC8CC8)c7)n6)c(C(F)F)n5)CC4)c3C2=O)C(=O)N1 (stereo not shown) [I-258] | C (<20% degradation) | B (>20-50% degradation) | C (<20% degradation) | > 1000
CN(CCOCCOCCCc1ccc2c(c1)C(=O)N(C1CCC(=O)NC1=O)C2=O)C(=O)c1ccc(-n2cc(NC(=O)c3coc(-c4ccncc4)n3)c(C(N)=O)n2)cc1 (stereo not shown) [I-227] | B (>20-50% degradation) | A (>50% degradation) | A (>50% degradation) | < 50
Cc1cc(-c2nc(C(=O)Nc3cn(-c4ccc(C(=O)NCCOCCOCCNc5cccc6c5C(=O)N(C5CCC(=O)NC5=O)C6=O)cc4)nc3C(N)=O)co2)ccn1 (stereo not shown) [I-241] | B (>20-50% degradation) | A (>50% degradation) | A (>50% degradation) | < 50
NC(=O)c1nn(-c2ccc(CNCC3CN(CCOCCNc4cccc5c4C(=O)N(C4CCC(=O)NC4=O)C5=O)CCO3)cc2)cc1NC(=O)c1coc(-c2ccnc(NCC(F)(F)F)c2)n1 (stereo not shown) [I-305, N-[3-carbamoyl-1-[4-[[[4-[2-[2-[[2-(2,6-dioxo-3-piperidyl)-1,3-dioxo-isoindolin-4-yl]amino]ethoxy]ethyl]morpholin-2-yl]methylamino]methyl]phenyl]pyrazol-4-yl]-2-[2-(2,2,2-trifluoroethylamino)-4-pyridyl]oxazole-4-carboxamide] | A (>50% degradation) | A (>50% degradation) | A (>50% degradation) | < 50
CN(CCOCCOCCCc1cccc2c1C(=O)N(C1CCC(=O)NC1=O)C2=O)C(=O)c1ccc(-n2cc(NC(=O)c3coc(-c4ccnc(NCC5CC5)c4)n3)c(C(F)F)n2)cc1 (stereo not shown) [I-225] | C (<20% degradation) | A (>50% degradation) | A (>50% degradation) | < 50
NC(=O)c1nn(-c2ccc(CNCCOCCOCCCc3cccc4c3C(=O)N(C3CCC(=O)NC3=O)C4=O)cc2)cc1NC(=O)c1coc(-c2ccnc(NCC(F)(F)F)c2)n1 (stereo not shown) [I-321] | B (>20-50% degradation) | A (>50% degradation) | A (>50% degradation) | < 50
NC(=O)c1nn(-c2ccc(C(=O)NCC3CCCCN3CCOCCNc3cccc4c3C(=O)N(C3CCC(=O)NC3=O)C4=O)cc2)cc1NC(=O)c1coc(-c2ccnc(NCC(F)(F)F)c2)n1 (stereo not shown) [I-219] | A (>50% degradation) | A (>50% degradation) | A (>50% degradation) | < 50
O=C1CCC(N2C(=O)c3ccc(NC4CCN(CCOCCOCCOCCNC(=O)c5ccc(-n6cc(NC(=O)c7coc(-c8ccnc(NCC9CC9)c8)n7)c(C(F)F)n6)cc5)CC4)cc3C2=O)C(=O)N1 (stereo not shown) [I-272] | C (<20% degradation) | B (>20-50% degradation) | A (>50% degradation) | 100 to 500
NC(=O)c1nn(-c2ccc(C(=O)NCCOCCOCCN3CCC(Nc4cccc5c4C(=O)N(C4CCC(=O)NC4=O)C5=O)CC3)cc2)cc1NC(=O)c1coc(-c2ccnc(NCC3CC3)c2)n1 (stereo not shown) [I-290] | B (>20-50% degradation) | B (>20-50% degradation) | B (>20-50% degradation) | > 1000
O=C1CCC(N2C(=O)c3ccc(NC4CCN(CCOCCOCCNC(=O)c5ccc(-n6cc(NC(=O)c7coc(-c8ccnc(NCC9CC9)c8)n7)c(C(F)F)n6)cc5)CC4)cc3C2=O)C(=O)N1 (stereo not shown) [I-270] | C (<20% degradation) | B (>20-50% degradation) | A (>50% degradation) | 100 to 500
O=C1CCC(N2C(=O)c3ccc(N4CCN(CCOCCNCc5ccc(-n6cc(NC(=O)c7coc(-c8ccnc(NCC9CC9)c8)n7)c(C(F)F)n6)cc5)CC4)cc3C2=O)C(=O)N1 (stereo not shown) [I-393] | C (<20% degradation) | A (>50% degradation) | A (>50% degradation) | 100 to 500
O=C1CCC(N2C(=O)c3cccc(CCCNC(=O)c4ccc(-n5cc(NC(=O)c6coc(-c7ccncc7)n6)c(C(F)F)n5)cc4)c3C2=O)C(=O)N1 (stereo not shown) [I-255] | C (<20% degradation) | C (<20% degradation) | C (<20% degradation) | > 1000
Cn1cc(-c2nc(C(=O)Nc3cn(-c4ccc(CNCCOCCOCCNc5cccc6c5C(=O)N(C5CCC(=O)NC5=O)C6=O)cc4)nc3C(F)F)co2)cn1 (stereo not shown) [I-352] | C (<20% degradation) | C (<20% degradation) | C (<20% degradation) | > 1000
Cn1c(=O)n(C2CCC(=O)NC2=O)c2ccc(CCCOCCOCCNC(=O)c3ccc(-n4cc(NC(=O)c5coc(-c6ccnc(NCC7CC7)c6)n5)c(C(F)F)n4)cc3)cc21 (stereo not shown) [I-252] | B (>20-50% degradation) | A (>50% degradation) | A (>50% degradation) | < 50
CN(CCCc1cccc2c1C(=O)N(C1CCC(=O)NC1=O)C2=O)Cc1ccc(-n2cc(NC(=O)c3coc(-c4ccnc(NCC(F)(F)F)c4)n3)c(C(F)F)n2)cc1 (stereo not shown) [I-360] | B (>20-50% degradation) | C (<20% degradation) | C (<20% degradation) | > 1000
O=C1CCC(N2C(=O)c3cccc(NCCNCCCCCNC(=O)c4ccc(-n5cc(NC(=O)c6coc(-c7ccnc(NC8CC8)c7)n6)c(C(F)F)n5)cc4)c3C2=O)C(=O)N1 (stereo not shown) [I-242] | B (>20-50% degradation) | A (>50% degradation) | A (>50% degradation) | < 50
O=C1CCC(N2C(=O)c3ccc(N4CCN(CCOCCOCCOCCNC(=O)c5ccc(-n6cc(NC(=O)c7coc(-c8ccnc(NCC9CC9)c8)n7)c(C(F)F)n6)cc5)CC4)cc3C2=O)C(=O)N1 (stereo not shown) [I-278] | C (<20% degradation) | B (>20-50% degradation) | A (>50% degradation) | 50 to 100
O=C1CCC(N2C(=O)c3ccc(N4CCN(CCOCCOCCNC(=O)c5ccc(-n6cc(NC(=O)c7coc(-c8ccnc(NCC9CC9)c8)n7)c(C(F)F)n6)cc5)CC4)cc3C2=O)C(=O)N1 (stereo not shown) [I-276] | C (<20% degradation) | B (>20-50% degradation) | A (>50% degradation) | 50 to 100
CN(CCOCCOCCCc1ccc2c(c1)C(=O)N(C1CCC(=O)NC1=O)C2=O)C(=O)c1ccc(-n2cc(NC(=O)c3coc(-c4ccnc(NCC(F)(F)F)c4)n3)c(C(F)F)n2)cc1 (stereo not shown) [I-279] | C (<20% degradation) | A (>50% degradation) | A (>50% degradation) | 50 to 100
